This is an account of results in publication PMC10622513, “A fluorogenic, peptide-based probe for the detection of Cathepsin D in macrophages” (Communications Chemistry, 2023).

For data set [1] the following is noted: cited from earlier work. The source says:
The new probe designed here was FRET-based, with a BODIPY fluorophore at the N-terminus, while the C-terminal Gln was replaced with a Lys residue functionalised with a quencher (Methyl Red, λmax 500 nm)[20].

The subject of data set [2] is human cathepsin D. The following applies: cited from earlier work. The text has this:
Herein, we report the design and synthesis of a fluorogenic probe, based on a specific substrate for CatD, which provides an OFF→ON signal upon activation with good signal amplification. […] When choosing a substrate to build an optical probe to be used in cells and potentially in vivo, control of cross-reactivities is vital and it is important to design a specific substrate that is not ...

Data set [3] relates to CatD activity in human monocyte-derived macrophages (MDM). The data set is described as follows: Confocal imaging of CatD activity in monocyte-derived macrophages. The note with it: Pepstatin A 20 μM, S. pneumoniae MOI 10:1, CatD-P3 10 μM. Type of data set: cell-based.
Protocol: Confocal fluorescence microscopy (λex 488, λem 512 nm) images of the detection of CatD activity in monocyte-derived macrophages. […] Mock infected macrophages (no bacteria) were used as a control (left panel). […] At 10 h the cells were washed, fixed in 2% paraformaldehyde and cell nuclei were counter-stained with DAPI (λex 405, λem 461 nm).
Human MDM were matured in 24-well Corning tissue culture plates over 14 days from Peripheral Blood Mononuclear cells obtained healthy volunteers by informed written consent, under ethical approval 21-EMREC-041. Following maturation, the MDM were removed from wells by treatment with Accutase (BioLegend) and re-seeded onto iBidi 8-well chamber slides. […] Following fixation, cells were washed again with 3 × PBS, with DAPI (0.1 µg/mL) added in the 2nd PBS wash for 10 min.
In these experiments, macrophages were incubated for 6 h in the presence or absence (Mock)
(20 μM) was added aoer 4 h. At 10 h the cells were washed, ﬁxed in 2% paraformaldehyde and cell nuclei
were counter-stained with DAPI (λex 405, λem 461 nm).
Details of data set [4]: method as in PMID 29876538. The following applies: acids such as TFA or HCl; cited from earlier work. The text has this:
The Methyl Red (MR) quencher was incorporated by coupling Fmoc-Lys(MR)-OH[20] onto a Rink-amide functionalised polystyrene resin (0.7 mmol/g), followed by the substrate sequence, using DIC and Oxyma as the coupling combination. The use of Fmoc-Lys(MR)-OH as a building block avoided the need for orthogonal deprotection on the resin[27],[28]. A bis-ethylene glycol spacer was introduced as the last amino acid before the fluorophore to increase hydrophilicity and promote aqueous solubility of the probe. The BODIPY (1,3,5,7-tetramethyl-8-phenyl-4,4-difluoroboradiazaindacene) fluorophore chosen as p ...

Entries after “also recorded” stand apart in the source; their conditions may differ.

`CC1=CC(C)=[N+]2C1=C(c1ccc(C(=O)ON3C(=O)CCC3=O)cc1)c1c(C)cc(C)n1[B-]2(F)F` [compound 2]: in data set [1], the “fluorescence quantum yield Φ” value is listed as 0.6 and the “pH sensitivity of fluorescence” value is “pH insensitive”.
Usually Km stands for the concentration of substrate that gives half-maximal velocity. The term kcat denotes the maximal rate divided by the concentration of active sites. Regarding “Ala-Ile-Ala-Phe↑Phe-Ser-Arg-Gln [kallistatin, natural CatD substrate kallistatin, from which Pimenta et al. derived the substrate]”, in data set [2], the Km was 0.27 µM and the turnover number (kcat) was 16.25 s⁻¹.
For the compound Pepstatin A, the “effect of Pepstatin A on CatD-P3 fluorescence in infected macrophages” value in data set [3] is recorded as “a decrease in the fluorescence signal; also recorded: prevented CatD-P3 activation resulting in reduced/no green fluorescence; also recorded: marked decrease in fluorescent signal”.
As for `CC1=CC(C)=[N+]2C1=C(c1ccccc1)c1c(C)cc(C)n1[B-]2(F)F` [BODIPY, 1,3,5,7-tetramethyl-8-phenyl-4,4-difluoroboradiazaindacene], the stability to acids result in data set [4] is recorded as “not stable to acids”.
